Measurements published in patent US20060241066A1, “Decoy composition for treating and preventing inflammatory disease” (priority 2002, published 2006).
Entries after “also recorded” stand apart in the source; their conditions may differ.

Experiments:
[1] = test system: type II collagen arthritis model in apes; assay: Type II collagen arthritis model in apes, intraarticular administration; type: in vivo, apes (macaque); details: for effective ratio: NF-κB decoy 10 mg/joint at two-week intervals, type II collagen articulitis model in apes; for change of the joints on X-ray photographs (synovial inflammation, joint swelling, joint cartilage, osteoclasis), FIG. 1: simian collagen arthritis model, radiograph
osteoarthritis rat model = assay: Osteoarthritis model using rats, intraarticular administration, joint section slides (FIG. 2); details: listed as NF-κB decoys

Row | Substance | effective ratio [1] | change of the joints on X-ray photographs (synovial inflammation, joint swelling, joint cartilage, osteoclasis), FIG. 1 [1] | change of the joints on X-ray photographs (synovial inflammation, joint swelling, joint cartilage, osteoclasis), FIG. 1 ([1]; listed as scrambled decoys) | change of the joints on X-ray photographs (synovial inflammation, joint swelling, joint cartilage, osteoclasis), FIG. 1 ([1]; listed as decoy of the present invention) | change of the joints on X-ray photographs (synovial inflammation, joint swelling, joint cartilage, osteoclasis), FIG. 1 ([1]; listed as decoys of the present invention) | effect on joint (section slide photographs), FIG. 2 (osteoarthritis rat model; administration of 10 mg of decoy) | effect on joint (section slide photographs), FIG. 2 (osteoarthritis rat model; administration of 30 mg of decoy) | effect compared with that of steroid, FIG. 2 (osteoarthritis rat model; decoy 10 mg and 30 mg versus steroid)
1 | 5′-CATGTCGTCACTGCGCTCAT-3′ (SEQ ID NO: 7); and 5′-ATGAGCGCAGTGACGACATG-3′ (SEQ ID NO: 8) (listed as DNA, chemistry not given here) [scrambled decoy, reference compound] | 1/4 | no effects | No effects | – | – | – | – | –
2 | 5′-CCTTGAAGGGATTTCCCTCC-3′ (SEQ ID NO: 1) (chemistry not given here) [NF-κB decoy] | 3/4 | – | – | significant improvements | significant improvement | significant improvement; also recorded: significant effects | eliminated the joint inflammation; also recorded: destroyed the articulitis | exceeded that of steroids; also recorded: beyond those attained by the steroid
